In ChEMBL document CHEMBL5143697, “Phenethoxy Derivatives with Anti-inflammatory Activities from the Betelnut Endophytic Trichoderma asperellum G10” (J Nat Prod, 2022):

Test system: RAW264.7
Experiment: Antiinflammatory activity against mouse RAW264.7 cells assessed as inhibition of LPS-induced NO production preincubated for 1 hr followed by LPS stimulation and measured after 36 hrs by Griess reagent based assay
Assay type: functional, cell-based

SMILES: C[C@@H]1[C@H](OCCc2ccccc2)O[C@H](C)[C@H]1CO
- IC50: 48.3 µM
